Assay results reported in PubChem BioAssay AID1259407 (Chemical Carcinogenesis Research Information System (CCRIS), 2018).
Active and inactive are the calls of the source. How the calls were made is not given here.

Tested on: CCRIS mutagenicity, Ames/micronucleus/aberration tests
Assay: CCRIS mutagenicity studies
[1] = Test System: AMES SALMONELLA TYPHIMURIUM, Strain/Indicator: TA98, Metabolic Activation: NONE, Method: PREINCUBATION
[2] = Test System: AMES SALMONELLA TYPHIMURIUM, Strain/Indicator: TA100, Metabolic Activation: NONE, Method: PREINCUBATION
[3] = Test System: AMES SALMONELLA TYPHIMURIUM, Strain/Indicator: TA1535, Metabolic Activation: NONE, Method: PREINCUBATION
[4] = Test System: AMES SALMONELLA TYPHIMURIUM, Strain/Indicator: TA1538, Metabolic Activation: NONE, Method: PREINCUBATION
[5] = Test System: AMES SALMONELLA TYPHIMURIUM, Strain/Indicator: TA98, Metabolic Activation: NONE, Method: STANDARD PLATE
[6] = Test System: AMES SALMONELLA TYPHIMURIUM, Strain/Indicator: TA100, Metabolic Activation: NONE, Method: STANDARD PLATE
[7] = Test System: AMES SALMONELLA TYPHIMURIUM, Strain/Indicator: TA1535, Metabolic Activation: NONE, Method: STANDARD PLATE
[8] = Test System: AMES SALMONELLA TYPHIMURIUM, Strain/Indicator: TA1537, Metabolic Activation: NONE, Method: STANDARD PLATE
[9] = Test System: AMES SALMONELLA TYPHIMURIUM, Strain/Indicator: TA1538, Metabolic Activation: NONE, Method: STANDARD PLATE
[10] = Test System: AMES SALMONELLA TYPHIMURIUM, Strain/Indicator: TA98, Metabolic Activation: RAT, LIVER, S-9, Method: STANDARD PLATE
[11] = Test System: AMES SALMONELLA TYPHIMURIUM, Strain/Indicator: TA100, Metabolic Activation: RAT, LIVER, S-9, Method: STANDARD PLATE
[12] = Test System: AMES SALMONELLA TYPHIMURIUM, Strain/Indicator: TA1535, Metabolic Activation: RAT, LIVER, S-9, Method: STANDARD PLATE

Q: Which results are given for CCCCCOc1cccc(NC(=O)O[C@@H]2CCCC[C@H]2N2CCCC2)c1?
A: mutagenic call (Test System: AMES SALMONELLA TYPHIMURIUM, Strain/Indicator: TA98, Metabolic Activation: MOUSE, LIVER, S-9, AROCLOR 1254, Method: PREINCUBATION): inactive; negative; mutagenic call [1]: inactive; negative; mutagenic call (Test System: AMES SALMONELLA TYPHIMURIUM, Strain/Indicator: TA100, Metabolic Activation: MOUSE, LIVER, S-9, AROCLOR 1254, Method: PREINCUBATION): inactive; negative; mutagenic call [2]: inactive; negative; mutagenic call (Test System: AMES SALMONELLA TYPHIMURIUM, Strain/Indicator: TA1535, Metabolic Activation: MOUSE, LIVER, S-9, AROCLOR 1254, Method: PREINCUBATION): inactive; negative; mutagenic call [3]: inactive; negative; mutagenic call (Test System: AMES SALMONELLA TYPHIMURIUM, Strain/Indicator: TA1538, Metabolic Activation: MOUSE, LIVER, S-9, AROCLOR 1254, Method: PREINCUBATION): inactive; negative; mutagenic call [4]: inactive; negative; mutagenic call (Test System: AMES SALMONELLA TYPHIMURIUM, Strain/Indicator: TA1978, Metabolic Activation: MOUSE, LIVER, S-9, AROCLOR 1254, Method: PREINCUBATION): inactive; negative; mutagenic call (Test System: AMES SALMONELLA TYPHIMURIUM, Strain/Indicator: TA1978, Metabolic Activation: NONE, Method: PREINCUBATION): inactive; negative; mutagenic call (Test System: E. COLI, Strain/Indicator: CM611 UVRA/LEXA, Metabolic Activation: MOUSE, LIVER, S-9, AROCLOR 1254, Method: PREINCUBATION): inactive; negative; mutagenic call (Test System: E. COLI, Strain/Indicator: CM611 UVRA/LEXA, Metabolic Activation: NONE, Method: PREINCUBATION): inactive; negative; mutagenic call (Test System: E. COLI, Strain/Indicator: WP2, Metabolic Activation: MOUSE, LIVER, S-9, AROCLOR 1254, Method: PREINCUBATION): inactive; negative; mutagenic call (Test System: E. COLI, Strain/Indicator: WP2, Metabolic Activation: NONE, Method: PREINCUBATION): inactive; negative; mutagenic call (Test System: E. COLI, Strain/Indicator: WP2 UVRA, Metabolic Activation: MOUSE, LIVER, S-9, AROCLOR 1254, Method: PREINCUBATION): inactive; negative; mutagenic call (Test System: E. COLI, Strain/Indicator: WP2 UVRA, Metabolic Activation: NONE, Method: PREINCUBATION): inactive; negative; mutagenic call (Test System: E. COLI, Strain/Indicator: WP67 UVRA/POLA, Metabolic Activation: MOUSE, LIVER, S-9, AROCLOR 1254, Method: PREINCUBATION): inactive; negative; mutagenic call (Test System: E. COLI, Strain/Indicator: WP67 UVRA/POLA, Metabolic Activation: NONE, Method: PREINCUBATION): inactive; negative

Q: Which mutagenic call [1] does the source give for CC(=O)O[C@]1(C(C)=O)CC[C@H]2[C@@H]3C4OC4(Cl)C4=CC(=O)[C@@H]5C[C@@H]5[C@]4(C)[C@H]3CC[C@@]21C (stereo not given in full) here?
A: Its mutagenic call is “inactive; negative”.

Q: And the mutagenic call [5]?
A: Its mutagenic call is “inactive; negative”.

Q: What about the mutagenic call (Test System: AMES SALMONELLA TYPHIMURIUM, Strain/Indicator: TA98, Metabolic Activation: RAT, LIVER, S-9, AROCLOR 1254, Method: PREINCUBATION) of the same molecule?
A: Its mutagenic call is “inactive; negative”.

Q: What about the mutagenic call (Test System: AMES SALMONELLA TYPHIMURIUM, Strain/Indicator: TA98, Metabolic Activation: RAT, LIVER, S-9, AROCLOR 1254, Method: STANDARD PLATE) of the same molecule?
A: Its mutagenic call is “inactive; negative”.

Q: What about the mutagenic call [2] of the same molecule?
A: Its mutagenic call is “inactive; negative”.

Q: What about the mutagenic call [6] of the same molecule?
A: The mutagenic call was “inactive; negative”.

Q: What about the mutagenic call (Test System: AMES SALMONELLA TYPHIMURIUM, Strain/Indicator: TA100, Metabolic Activation: RAT, LIVER, S-9, AROCLOR 1254, Method: PREINCUBATION) of the same molecule?
A: The mutagenic call was “inactive; negative”.

Q: What about the mutagenic call (Test System: AMES SALMONELLA TYPHIMURIUM, Strain/Indicator: TA100, Metabolic Activation: RAT, LIVER, S-9, AROCLOR 1254, Method: STANDARD PLATE) of the same molecule?
A: Its mutagenic call is “inactive; negative”.

Q: What about the mutagenic call [3] of the same molecule?
A: The mutagenic call was “inactive; negative”.

Q: And the mutagenic call [7]?
A: The mutagenic call was “inactive; negative”.

Q: What about the mutagenic call (Test System: AMES SALMONELLA TYPHIMURIUM, Strain/Indicator: TA1535, Metabolic Activation: RAT, LIVER, S-9, AROCLOR 1254, Method: PREINCUBATION) of the same molecule?
A: Its mutagenic call is “inactive; negative”.

Q: What about the mutagenic call (Test System: AMES SALMONELLA TYPHIMURIUM, Strain/Indicator: TA1535, Metabolic Activation: RAT, LIVER, S-9, AROCLOR 1254, Method: STANDARD PLATE) of the same molecule?
A: The mutagenic call was “inactive; negative”.

Q: What about the mutagenic call (Test System: AMES SALMONELLA TYPHIMURIUM, Strain/Indicator: TA1537, Metabolic Activation: NONE, Method: PREINCUBATION) of the same molecule?
A: Its mutagenic call is “inactive; negative”.

Q: And the mutagenic call [8]?
A: The mutagenic call was “inactive; negative”.

Q: And the mutagenic call (Test System: AMES SALMONELLA TYPHIMURIUM, Strain/Indicator: TA1537, Metabolic Activation: RAT, LIVER, S-9, AROCLOR 1254, Method: PREINCUBATION)?
A: The mutagenic call was “inactive; negative”.

Q: And the mutagenic call (Test System: AMES SALMONELLA TYPHIMURIUM, Strain/Indicator: TA1537, Metabolic Activation: RAT, LIVER, S-9, AROCLOR 1254, Method: STANDARD PLATE)?
A: Its mutagenic call is “inactive; negative”.

Q: And the mutagenic call [4]?
A: Its mutagenic call is “inactive; negative”.

Q: What about the mutagenic call [9] of the same molecule?
A: The mutagenic call was “inactive; negative”.

Q: And the mutagenic call (Test System: AMES SALMONELLA TYPHIMURIUM, Strain/Indicator: TA1538, Metabolic Activation: RAT, LIVER, S-9, AROCLOR 1254, Method: PREINCUBATION)?
A: The mutagenic call was “inactive; negative”.

Q: And the mutagenic call (Test System: AMES SALMONELLA TYPHIMURIUM, Strain/Indicator: TA1538, Metabolic Activation: RAT, LIVER, S-9, AROCLOR 1254, Method: STANDARD PLATE)?
A: The mutagenic call was “inactive; negative”.

Q: What does the source list for O=[N+]([O-])c1ccc2ccc3nc4ccccc4c4ccc1c2c34?
A: mutagenic call (Test System: AMES SALMONELLA TYPHIMURIUM, Strain/Indicator: TA98(1,8-DNP6), Metabolic Activation: NONE): active; positive; mutagenic call (Test System: AMES SALMONELLA TYPHIMURIUM, Strain/Indicator: TA98(NR), Metabolic Activation: NONE): active; positive; mutagenic call (Test System: AMES SALMONELLA TYPHIMURIUM, Strain/Indicator: TA98, Metabolic Activation: NONE): active; positive

Q: For CCOCC(O)COc1ccc(NC(=O)CC[S+](C)C)cc1 (stereo not given), which mutagenic call [5] is on record?
A: The mutagenic call was “inactive; negative”.

Q: And the mutagenic call [10]?
A: The mutagenic call was “inactive; negative”.

Q: And the mutagenic call [6]?
A: Its mutagenic call is “inactive; negative”.

Q: What about the mutagenic call [11] of the same molecule?
A: Its mutagenic call is “inactive; negative”.

Q: What about the mutagenic call [7] of the same molecule?
A: Its mutagenic call is “inactive; negative”.

Q: And the mutagenic call [12]?
A: The mutagenic call was “inactive; negative”.

Q: What about the mutagenic call [8] of the same molecule?
A: The mutagenic call was “inactive; negative”.

Q: What about the mutagenic call (Test System: AMES SALMONELLA TYPHIMURIUM, Strain/Indicator: TA1537, Metabolic Activation: RAT, LIVER, S-9, Method: STANDARD PLATE) of the same molecule?
A: Its mutagenic call is “inactive; negative”.

Q: And the mutagenic call [9]?
A: Its mutagenic call is “inactive; negative”.

Q: What about the mutagenic call (Test System: AMES SALMONELLA TYPHIMURIUM, Strain/Indicator: TA1538, Metabolic Activation: RAT, LIVER, S-9, Method: STANDARD PLATE) of the same molecule?
A: The mutagenic call was “inactive; negative”.

Q: And the mutagenic call (Test System: E. COLI, Strain/Indicator: WP2, Metabolic Activation: NONE, Method: STANDARD PLATE)?
A: The mutagenic call was “inactive; negative”.

Q: And the mutagenic call (Test System: E. COLI, Strain/Indicator: WP2, Metabolic Activation: RAT, LIVER, S-9, Method: STANDARD PLATE)?
A: Its mutagenic call is “inactive; negative”.

Q: And the mutagenic call (Test System: E. COLI, Strain/Indicator: WP2 UVRA, Metabolic Activation: NONE, Method: STANDARD PLATE)?
A: Its mutagenic call is “inactive; negative”.

Q: What about the mutagenic call (Test System: E. COLI, Strain/Indicator: WP2 UVRA, Metabolic Activation: RAT, LIVER, S-9, Method: STANDARD PLATE) of the same molecule?
A: Its mutagenic call is “inactive; negative”.

Q: What does the source list for Cc1cc(C)c(N)c(C)c1N?
A: mutagenic call (Test System: AMES SALMONELLA TYPHIMURIUM, Strain/Indicator: TA97, Metabolic Activation: NONE, Method: STANDARD PLATE): inactive; negative; mutagenic call (Test System: AMES SALMONELLA TYPHIMURIUM, Strain/Indicator: TA97, Metabolic Activation: RAT, LIVER, S-9, Method: STANDARD PLATE): active; positive; mutagenic call [5]: inactive; negative; mutagenic call [10]: active; positive; mutagenic call [6]: active; positive; mutagenic call [11]: active; positive; mutagenic call [7]: active; positive; mutagenic call [12]: active; positive

Q: With CC(=O)Nc1ccc(Cc2ccc(NC(C)=O)cc2)cc1 as the molecule, how does the mutagenic call [5] read?
A: The mutagenic call was “inactive; negative”.

Q: What about the mutagenic call (Test System: AMES SALMONELLA TYPHIMURIUM, Strain/Indicator: TA98, Metabolic Activation: RAT, LIVER, S-9, PCB, Method: STANDARD PLATE) of the same molecule?
A: The mutagenic call was “inactive; negative”.

Q: And the mutagenic call [6]?
A: Its mutagenic call is “inactive; negative”.

Q: And the mutagenic call (Test System: AMES SALMONELLA TYPHIMURIUM, Strain/Indicator: TA100, Metabolic Activation: RAT, LIVER, S-9, PCB, Method: STANDARD PLATE)?
A: The mutagenic call was “inactive; negative”.

Q: What does the source list for BrCc1ccccc1CBr?
A: mutagenic call [5]: inactive; negative; mutagenic call [6]: inactive; negative

Q: [N-]=[N+]=Nc1ccc2c(Nc3ccc(NS(=O)(=O)CCCN)cc3)c3cc(N=[N+]=[N-])ccc3nc2c1 was tested. Which mutagenic call [8] did it give?
A: Its mutagenic call is “active; positive”.
